Tested on: Diaphorina citri Kuwayama
Assay type: in vivo
Conditions: solution at 1 μg/L in n-hexane applied to citrus leaves, compared to solvent n-hexane, 40 min

Compound	effect on Diaphorina citri Kuwayama selection preference
(E)-β-farnesene	significant repulsive effect
C=C1CC/C=C(\C)CC[C@@H]2[C@@H]1CC2(C)C [β-caryophyllene]	significant repulsive effect

Source: patent publication US20260185118A1 (priority 2023, published 2026)
